According to patent US7026327B2, “Pyrimidine derivatives useful as selective COX-2 inhibitors” (Glaxo Group Limited, priority 2001, dated 2006):
Where two headings read alike, the source gives them in different places.

Key:
[1] = target: T1, human COX-2 (Homo sapiens, UniProt P35354); test: Cell based assay, COS cells stably transfected with human COX-2, PGE2 release
T1 construct: expressed in transfected cells; host or cells: COS cells, stably transfected
T1 sequence (P35354 18-604): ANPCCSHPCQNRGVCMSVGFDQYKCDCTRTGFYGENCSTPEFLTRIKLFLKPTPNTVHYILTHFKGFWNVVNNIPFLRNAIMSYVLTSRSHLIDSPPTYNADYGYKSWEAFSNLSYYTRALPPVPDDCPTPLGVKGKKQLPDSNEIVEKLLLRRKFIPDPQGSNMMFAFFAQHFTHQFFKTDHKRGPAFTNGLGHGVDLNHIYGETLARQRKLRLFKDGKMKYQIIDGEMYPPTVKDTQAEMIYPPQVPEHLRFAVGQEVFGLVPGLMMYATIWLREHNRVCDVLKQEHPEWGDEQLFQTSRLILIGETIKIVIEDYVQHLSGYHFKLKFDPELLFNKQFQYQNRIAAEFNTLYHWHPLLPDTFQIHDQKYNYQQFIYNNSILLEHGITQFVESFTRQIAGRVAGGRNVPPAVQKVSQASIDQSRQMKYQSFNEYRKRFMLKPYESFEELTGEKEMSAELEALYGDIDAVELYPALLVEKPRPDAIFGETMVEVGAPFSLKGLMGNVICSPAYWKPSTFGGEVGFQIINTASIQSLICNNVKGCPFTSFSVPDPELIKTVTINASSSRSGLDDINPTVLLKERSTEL
Protocol: (§1) Inhibitory activity against human COX-1 and COX-2 was assessed in COS cells which had been stably transfected with cDNA for human COX-1 and human COX-2. 24 Hours prior to experiment, COS cells were transferred from the 175 cm^2 flasks in which they were grown, onto 24-well cell culture plates using the following procedure. The incubation medium (Dulbecco's modified eagles medium (DMEM) supplemented with heat-inactivated foetal calf serum (10% v/v), penicillin (100 IU/ml), streptomycin (100 μg/ml) and geneticin (600 μg/ml)) was removed from a flask of confluent cells (1 flask at confluency contains approximately 1×10^7 cells). 5 ml of phosphate buffered saline (PBS) was added to the flask to wash the cells. Having discarded the PBS, cells were then incubated with 5 ml trypsin for 5 minutes in an incubator (37°). The flask was then removed from the incubator and 5 ml of fresh incubation medium was added. The contents of the flask was transferred to a 250 ml sterile container and the volume of incubation medium subsequently made up to 100ml. 1 ml cell suspension was pipetted into each well of 4×24-well cell culture plates. The plates were then placed in an incubator (37° C., 95% air/5% CO2) overnight. If more than 1 flask of cells were required, the cells from the individual flasks were combined before being dispensed into the 24-well plates.
(§2) Following the overnight incubation, the incubation medium was completely removed from the 24-well cell culture plates and replaced with 250 μl fresh DMEM (37° C.). The test compounds were made up to 250× the required test concentration in DMSO and were added to the wells in a volume of 1 μl. Plates were then mixed gently by swirling and then placed in an incubator for 1 hour (37° C., 95% air/5% CO2). Following the incubation period, 10 μl of arachidonic acid (750 μM) was added to each well to give a final arachidonic acid concentration of 30 μM. Plates were then incubated for a further 10 minutes, after which the incubation medium was removed from each well of the plates and stored at −20° C., prior to determination of prostaglandin E2 (PGE2) levels using enzyme immunoassay. […] The selectivity ratio of inhibition of COX-1 versus COX-2 was calculated by comparing respective IC50 values.

[2] = target: T2, COX-1 (Homo sapiens, UniProt P23219); test: Cell based assay, COS cells stably transfected with human COX-1, PGE2 release; parameters: expressed in transfected cells; host or cells: COS cells, stably transfected
T2 sequence (P23219 24-599): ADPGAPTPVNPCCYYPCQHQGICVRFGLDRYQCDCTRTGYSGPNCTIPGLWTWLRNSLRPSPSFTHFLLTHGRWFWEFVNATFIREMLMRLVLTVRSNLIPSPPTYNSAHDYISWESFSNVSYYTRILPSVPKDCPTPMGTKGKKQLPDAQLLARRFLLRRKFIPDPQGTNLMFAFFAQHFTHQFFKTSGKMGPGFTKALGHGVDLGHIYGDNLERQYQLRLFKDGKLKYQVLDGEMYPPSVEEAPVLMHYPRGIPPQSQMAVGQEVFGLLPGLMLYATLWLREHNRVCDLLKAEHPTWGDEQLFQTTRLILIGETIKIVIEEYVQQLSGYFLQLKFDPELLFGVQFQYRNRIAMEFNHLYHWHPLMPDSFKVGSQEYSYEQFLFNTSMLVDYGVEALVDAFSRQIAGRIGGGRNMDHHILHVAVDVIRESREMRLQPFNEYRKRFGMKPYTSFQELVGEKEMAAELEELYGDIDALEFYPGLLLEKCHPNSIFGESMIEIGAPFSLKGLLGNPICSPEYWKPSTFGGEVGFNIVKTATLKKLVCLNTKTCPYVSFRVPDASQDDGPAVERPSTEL
Protocol: as §1, §2

[3] = target: T3, microsomal h-COX2 (Homo sapiens, UniProt P35354); test: Microsomal assay, h-COX2 microsomal preparation from baculovirus infected SF9 cells; format: biochemical
T3 construct: made in house; host or cells: baculovirus infected SF9 cells (microsomal preparation)
T3 sequence (P35354 18-604): T1 sequence (P35354 18-604)
Protocol: Inhibitory activity against microsomal h-COX2 was assessed against a microsomal preparation from baculovirus infected SF9 cells. An aliquot of microsomal preparation was thawed slowly on ice and a 1/40,000 dilution prepared from it into the assay buffer (sterile water, degassed with argon containing 100 mM HEPES (pH 7.4), 10 mM EDTA (pH7.4), 1 mM phenol, 1 mM reduced glutathione, 20 mg/ml gelatin and 0.001 mM Hematin). Once diluted the enzyme solution was then sonicated for 5 seconds (Branson sonicator, setting 4, 1 cm tip) to ensure a homogeneous suspension. 155 μl enzyme solution was then added to each well of a 96-well microtitre plate containing either 5 μl test compound (40× required test concentration) or 5 μl DMSO for controls. Plates were then mixed and incubated at room temperature for 1 hour. Following the incubation period, 40 μl of 0.5 μM arachidonic acid was added to each well to give a final concentration of 0.1 μM. Plates were then mixed and incubated for exactly 10 minutes (room temperature) prior to addition of […] HCl (hydrochloric acid) to each well to stop the reaction. 25 μl of 1 M NaOH (sodium hydroxide) was then added to each well to neutralise the solution prior to determination of PGE2 levels by enzyme immunoassay (EIA).

[4] = target: T2, COX-1; test: Microsomal assay, COX-1; format: biochemical
[5] = microsomal assay, PGE2 by EIA, 0.1 μM arachidonic acid, read-out: COX-2: IC50

Row | IC50 [1] [nM] | IC50 [2] [nM] | IC50 [3, 5] [nM] | IC50 [4] [nM] | Compound | also measured
1 | < 1 | 81300 |  |  | CS(=O)(=O)c1ccc(-c2cc(C(F)(F)F)nc(Oc3ccc(F)cc3)n2)cc1 [Example 1, 2-(4-Fluorophenoxy)-4-[4-(methylsulfonyl)phenyl]-6-(trifluoromethyl)pyrimidine] | 
2 | 23 | 9670 |  |  | CS(=O)(=O)c1ccc(-c2cc(C(F)(F)F)nc(Oc3ccc(F)c(F)c3)n2)cc1 [Example 2] | 
3 | 4 | 2920 |  |  | COc1ccc(Oc2nc(-c3ccc(S(C)(=O)=O)cc3)cc(C(F)(F)F)n2)cc1 [Example 3] | 
4 | 6 | 61400 |  |  | CS(=O)(=O)c1ccc(-c2cc(C(F)(F)F)nc(Oc3ccc(Br)cc3)n2)cc1 [Example 5] | 
5 |  |  | < 10 | 3750 | Cc1ccc(Oc2nc(-c3ccc(S(C)(=O)=O)cc3)cc(C(F)(F)F)n2)cc1 [Example 6] | 
6 |  |  | < 10 | 79900 | CS(=O)(=O)c1ccc(-c2cc(C(F)(F)F)nc(Oc3cncc(Cl)c3)n2)cc1 [Example 7, 2-[(5-chloropyridin-3-yl)oxy]-4-[4-(methylsulfony)phenyl]-6-(trifluoromethyl)pyrimidine] | 
7 |  |  |  | 1860 | CS(=O)(=O)c1ccc(-c2cc(C(F)(F)F)nc(OC3CCCCC3)n2)cc1 [Example 8, 2-(cyclohexyloxy)-4-[4-(methylsulfonyl)phenyl]-6-(trifluoromethyl)pyrimidine] | 
8 |  |  |  |  | CS(=O)(=O)c1ccc(-c2cc(C(F)(F)F)nc(OCC3CCCC3)n2)cc1 [Example 9] | IC50 [3]: 22 nM

Row | Compound | IC50 [1] [nM] | IC50 [2] [nM] | IC50 [3, 5] [nM] | IC50 [4] [nM] | also measured
9 | CCCCOc1nc(-c2ccc(S(C)(=O)=O)cc2)cc(C(F)(F)F)n1 [Example 10, 2-Butoxy-4-[4-(methylsulfonyl)phenyl]-6-(trifluoromethyl)pyrimidine] |  |  | 22 |  | 
